In this test the test system is PABPC1 PABC. It counts as binding, human. The conditions noted are these: DMS-BM library, bait PABPC1 PABC, row aa = residue at this position; for DMS-derived PSSM value, position A6 / DMS-derived PSSM value, position A8: A = wild type; for DMS-derived PSSM value (averaged), position K7 / DMS-derived PSSM value, position K7: K = wild type.
The mark [1] stands for this setting: prey ATXN2, peptide TLNPNAKEFNPRSFSQ
Setting [2] is: prey ATXN2, peptide TLNPNAKEFNPRSFSQ, F = wild type.
The mark [3] stands for this setting: prey ATXN2, peptide TLNPNAKEFNPRSFSQ, N = wild type.
Setting [4] is: prey ATXN2, peptide KSTLNPNAKEFNPRSF, P = wild type.
Setting [5] is: prey ATXN2, peptide KSTLNPNAKEFNPRSF, N = wild type.
Where [6] appears, read: prey ATXN2, peptide TLNPNAKEFNPRSFSQ, S = wild type.
Setting [7] is: prey ATXN2, TLNPNAKEFNPRSF(averaged) over the two overlapping peptides, T = wild type.
The mark [8] stands for this setting: prey ATXN2, peptide KSTLNPNAKEFNPRSF
[9] abbreviates: prey ATXN2, peptide KSTLNPNAKEFNPRSF, F = wild type.
[10] abbreviates: prey ATXN2, peptide KSTLNPNAKEFNPRSF, S = wild type.
The mark [11] stands for this setting: prey ATXN2, TLNPNAKEFNPRSF(averaged) over the two overlapping peptides, P = wild type.
Setting [12] is: prey ATXN2, peptide TLNPNAKEFNPRSFSQ, P = wild type.
Where [13] appears, read: prey ATXN2, TLNPNAKEFNPRSF(averaged) over the two overlapping peptides, F = wild type.
The mark [14] stands for this setting: prey ATXN2, TLNPNAKEFNPRSF(averaged) over the two overlapping peptides.
[15] abbreviates: prey ATXN2, peptide TLNPNAKEFNPRSFSQ, R = wild type.

Like-named read-outs stand apart in the source and are kept apart here.

The record followed here is paper PMC12102759 (Protein Science : A Publication of the Protein Society, 2025).

“TLNPNAKEFNPRSF(averaged) E8A (TLNPNAKAFNPRSF)”: the “DMS-derived PSSM value (averaged), position E8” value (prey ATXN2, TLNPNAKEFNPRSF(averaged) over the two overlapping peptides, E = wild type) amounted to 0.01267.
Turning to TLNPNAKEFNPRSFSQ A6V (TLNPNVKEFNPRSFSQ), under setting [1], the “DMS-derived PSSM value, position A6” value was found to be 0.2197.
TLNPNAKEFNPRSFSQ F9T (TLNPNAKETNPRSFSQ): the “DMS-derived PSSM value, position F9” value under setting [2] turned out to be 0.05894.
Regarding TLNPNAKEFNPRSFSQ N3I (TLIPNAKEFNPRSFSQ), under setting [3], the “DMS-derived PSSM value, position N3” value is on record as 0.
Regarding TLNPNAKEFNPRSFSQ T1K (KLNPNAKEFNPRSFSQ), the “DMS-derived PSSM value, position T1” value (prey ATXN2, peptide TLNPNAKEFNPRSFSQ, T = wild type) came to 0.03828.
On to KSTLNPNAKEFNPRSF P6D (KSTLNDNAKEFNPRSF), for which the “DMS-derived PSSM value, position P6” value under setting [4] was found to be 0.
For the substance “KSTLNPNAKEFNPRSF N12W (KSTLNPNAKEFWPRSF)”, the “DMS-derived PSSM value, position N12” value under setting [5] turned out to be 0.1585.
As to “TLNPNAKEFNPRSF(averaged) S13H (TLNPNAKEFNPRHF)”, under “prey ATXN2, TLNPNAKEFNPRSF(averaged) over the two overlapping peptides, S = wild type”, the “DMS-derived PSSM value (averaged), position S13” value came out at 0.06517.
On to “TLNPNAKEFNPRSFSQ S15R (TLNPNAKEFNPRSFRQ)”, for which, under setting [6], the “DMS-derived PSSM value, position S15” value is recorded as 0.01068.
Turning to TLNPNAKEFNPRSFSQ F9M (TLNPNAKEMNPRSFSQ), the “DMS-derived PSSM value, position F9” value under setting [2] turned out to be 0.
Consider “KSTLNPNAKEFNPRSF P13H (KSTLNPNAKEFNHRSF)”, for which, under setting [4], the “DMS-derived PSSM value, position P13” value was 0.
Turning to “TLNPNAKEFNPRSF(averaged) T1G (GLNPNAKEFNPRSF)”, under setting [7], the “DMS-derived PSSM value (averaged), position T1” value is 0.09.
Turning to TLNPNAKEFNPRSFSQ A6R (TLNPNRKEFNPRSFSQ), the “DMS-derived PSSM value, position A6” value under setting [1] is listed as 0.
Regarding KSTLNPNAKEFNPRSF A8E (KSTLNPNEKEFNPRSF), under setting [8], the “DMS-derived PSSM value, position A8” value is 0.
As for KSTLNPNAKEFNPRSF L4A (KSTANPNAKEFNPRSF), where the note is “prey ATXN2, peptide KSTLNPNAKEFNPRSF, L = wild type”, the “DMS-derived PSSM value, position L4” value worked out at 0.
Consider “TLNPNAKEFNPRSFSQ S13K (TLNPNAKEFNPRKFSQ)”, for which the “DMS-derived PSSM value, position S13” value under setting [6] is given as 0.007933.
As to “TLNPNAKEFNPRSF(averaged) T1L (LLNPNAKEFNPRSF)”, under setting [7], the “DMS-derived PSSM value (averaged), position T1” value is reported as 0.06577.
For “KSTLNPNAKEFNPRSF F16L (KSTLNPNAKEFNPRSL)”, under setting [9], the “DMS-derived PSSM value, position F16” value is recorded as 0.2967.
In the case of TLNPNAKEFNPRSFSQ N5Q (TLNPQAKEFNPRSFSQ), the “DMS-derived PSSM value, position N5” value under setting [3] was 0.004159.
As for KSTLNPNAKEFNPRSF S2H (KHTLNPNAKEFNPRSF), the “DMS-derived PSSM value, position S2” value under setting [10] is on record as 0.0308.
With “TLNPNAKEFNPRSFSQ S15E (TLNPNAKEFNPRSFEQ)”, the “DMS-derived PSSM value, position S15” value under setting [6] turned out to be 0.1009.
For TLNPNAKEFNPRSFSQ L2S (TSNPNAKEFNPRSFSQ), the “DMS-derived PSSM value, position L2” value (prey ATXN2, peptide TLNPNAKEFNPRSFSQ, L = wild type) was 0.
Take “TLNPNAKEFNPRSF(averaged) P4N (TLNNNAKEFNPRSF)”: the “DMS-derived PSSM value (averaged), position P4” value under setting [11] came to 0.0005247.
For the substance “TLNPNAKEFNPRSF(averaged) P11R (TLNPNAKEFNRRSF)”, the “DMS-derived PSSM value (averaged), position P11” value under setting [11] is recorded as 0.003178.
Turning to TLNPNAKEFNPRSFSQ P4Q (TLNQNAKEFNPRSFSQ), under setting [12], the “DMS-derived PSSM value, position P4” value is recorded as 0.03549.
For the substance “TLNPNAKEFNPRSF(averaged) F9K (TLNPNAKEKNPRSF)”, the “DMS-derived PSSM value (averaged), position F9” value under setting [13] is reported as 0.003046.
With TLNPNAKEFNPRSFSQ A6T (TLNPNTKEFNPRSFSQ), under setting [1], the “DMS-derived PSSM value, position A6” value is 0.2659.
For the substance “TLNPNAKEFNPRSF(averaged) T1V (VLNPNAKEFNPRSF)”, under setting [7], the “DMS-derived PSSM value (averaged), position T1” value is 0.1224.
Take “TLNPNAKEFNPRSFSQ P11G (TLNPNAKEFNGRSFSQ)”: the “DMS-derived PSSM value, position P11” value under setting [12] is on record as 0.04287.
The same measure, in the same setting: to “TLNPNAKEFNPRSFSQ P11R (TLNPNAKEFNRRSFSQ)” belongs 0.006355.
Turning to “TLNPNAKEFNPRSF(averaged) K7T (TLNPNATEFNPRSF)”, the “DMS-derived PSSM value (averaged), position K7” value under setting [14] was 0.01485.
On to “TLNPNAKEFNPRSFSQ N10Y (TLNPNAKEFYPRSFSQ)”, for which, under setting [3], the “DMS-derived PSSM value, position N10” value was 0.09858.
Consider “KSTLNPNAKEFNPRSF F11W (KSTLNPNAKEWNPRSF)”, for which the “DMS-derived PSSM value, position F11” value under setting [9] turned out to be 0.203.
Consider TLNPNAKEFNPRSFSQ E8P (TLNPNAKPFNPRSFSQ), for which the “DMS-derived PSSM value, position E8” value (prey ATXN2, peptide TLNPNAKEFNPRSFSQ, E = wild type) came out at 0.2652.
Take “TLNPNAKEFNPRSFSQ F14H (TLNPNAKEFNPRSHSQ)”: the “DMS-derived PSSM value, position F14” value under setting [2] was 0.09586.
Turning to “KSTLNPNAKEFNPRSF E10N (KSTLNPNAKNFNPRSF)”, the “DMS-derived PSSM value, position E10” value (prey ATXN2, peptide KSTLNPNAKEFNPRSF, E = wild type) is given as 0.01939.
“TLNPNAKEFNPRSF(averaged) F9A (TLNPNAKEANPRSF)”: the “DMS-derived PSSM value (averaged), position F9” value under setting [13] is reported as 0.
Consider TLNPNAKEFNPRSFSQ K7I (TLNPNAIEFNPRSFSQ), for which the “DMS-derived PSSM value, position K7” value under setting [1] came to 0.003703.
Regarding “TLNPNAKEFNPRSFSQ S15P (TLNPNAKEFNPRSFPQ)”, the “DMS-derived PSSM value, position S15” value under setting [6] was 0.326.
As for “TLNPNAKEFNPRSF(averaged) F14Q (TLNPNAKEFNPRSQ)”, the “DMS-derived PSSM value (averaged), position F14” value under setting [13] is 0.06013.
In the case of TLNPNAKEFNPRSFSQ N3T (TLTPNAKEFNPRSFSQ), the “DMS-derived PSSM value, position N3” value under setting [3] turned out to be 0.01993.
Regarding TLNPNAKEFNPRSFSQ N5V (TLNPVAKEFNPRSFSQ), the “DMS-derived PSSM value, position N5” value under setting [3] is on record as 0.09342.
On to TLNPNAKEFNPRSFSQ K7D (TLNPNADEFNPRSFSQ), for which the “DMS-derived PSSM value, position K7” value under setting [1] is listed as 0.01281.
Take “TLNPNAKEFNPRSF(averaged) P11N (TLNPNAKEFNNRSF)”: under setting [11], the “DMS-derived PSSM value (averaged), position P11” value was 0.02352.
With KSTLNPNAKEFNPRSF T3A (KSALNPNAKEFNPRSF), the “DMS-derived PSSM value, position T3” value (prey ATXN2, peptide KSTLNPNAKEFNPRSF, T = wild type) amounted to 0.04081.
“TLNPNAKEFNPRSFSQ R12Q (TLNPNAKEFNPQSFSQ)”: the “DMS-derived PSSM value, position R12” value under setting [15] was 0.0158.
Take KSTLNPNAKEFNPRSF A8D (KSTLNPNDKEFNPRSF): the “DMS-derived PSSM value, position A8” value under setting [8] amounted to 0.
As for KSTLNPNAKEFNPRSF N5F (KSTLFPNAKEFNPRSF), the “DMS-derived PSSM value, position N5” value under setting [5] came out at 0.
As for KSTLNPNAKEFNPRSF S2Q (KQTLNPNAKEFNPRSF), the “DMS-derived PSSM value, position S2” value under setting [10] came out at 0.001157.
Regarding “TLNPNAKEFNPRSF(averaged) R12P (TLNPNAKEFNPPSF)”, the “DMS-derived PSSM value (averaged), position R12” value (prey ATXN2, TLNPNAKEFNPRSF(averaged) over the two overlapping peptides, R = wild type) is listed as 0.006659.
Take “TLNPNAKEFNPRSFSQ S15D (TLNPNAKEFNPRSFDQ)”: the “DMS-derived PSSM value, position S15” value under setting [6] is 0.0138.
As to “TLNPNAKEFNPRSF(averaged) F9E (TLNPNAKEENPRSF)”, under setting [13], the “DMS-derived PSSM value (averaged), position F9” value was found to be 0.02703.
As to “TLNPNAKEFNPRSF(averaged) T1D (DLNPNAKEFNPRSF)”, the “DMS-derived PSSM value (averaged), position T1” value under setting [7] is recorded as 0.05337.
For the substance “TLNPNAKEFNPRSFSQ R12G (TLNPNAKEFNPGSFSQ)”, the “DMS-derived PSSM value, position R12” value under setting [15] worked out at 0.02158.
As for “TLNPNAKEFNPRSF(averaged) K7Y (TLNPNAYEFNPRSF)”, the “DMS-derived PSSM value (averaged), position K7” value under setting [14] worked out at 0.2476.
For the substance TLNPNAKEFNPRSFSQ N3A (TLAPNAKEFNPRSFSQ), the “DMS-derived PSSM value, position N3” value under setting [3] amounted to 0.
With KSTLNPNAKEFNPRSF N5M (KSTLMPNAKEFNPRSF), the “DMS-derived PSSM value, position N5” value under setting [5] was found to be 0.
With “TLNPNAKEFNPRSF(averaged) L2N (TNNPNAKEFNPRSF)”, for the setting “prey ATXN2, TLNPNAKEFNPRSF(averaged) over the two overlapping peptides, L = wild type”, the “DMS-derived PSSM value (averaged), position L2” value worked out at 0.
Regarding KSTLNPNAKEFNPRSF S2Y (KYTLNPNAKEFNPRSF), the “DMS-derived PSSM value, position S2” value under setting [10] came to 0.2105.
For TLNPNAKEFNPRSFSQ P4K (TLNKNAKEFNPRSFSQ), the “DMS-derived PSSM value, position P4” value under setting [12] is reported as 0.
For “TLNPNAKEFNPRSF(averaged) F14T (TLNPNAKEFNPRST)”, the “DMS-derived PSSM value (averaged), position F14” value under setting [13] was 0.01392.
